Laboratory results published in patent publication EP1932831A1, “1,2-Diarylacetylene Derivatives of Acyltryptophanols” (Bayer Schering Pharma Aktiengesellschaft, priority 2006, dated 2008).

Target: T1, human FSH receptor (Homo sapiens, UniProt P23945)
T1 construct: expressed in transfected cells; host or cells: CHO cells (hFSHR clone 16)
T1 sequence (P23945 18-695): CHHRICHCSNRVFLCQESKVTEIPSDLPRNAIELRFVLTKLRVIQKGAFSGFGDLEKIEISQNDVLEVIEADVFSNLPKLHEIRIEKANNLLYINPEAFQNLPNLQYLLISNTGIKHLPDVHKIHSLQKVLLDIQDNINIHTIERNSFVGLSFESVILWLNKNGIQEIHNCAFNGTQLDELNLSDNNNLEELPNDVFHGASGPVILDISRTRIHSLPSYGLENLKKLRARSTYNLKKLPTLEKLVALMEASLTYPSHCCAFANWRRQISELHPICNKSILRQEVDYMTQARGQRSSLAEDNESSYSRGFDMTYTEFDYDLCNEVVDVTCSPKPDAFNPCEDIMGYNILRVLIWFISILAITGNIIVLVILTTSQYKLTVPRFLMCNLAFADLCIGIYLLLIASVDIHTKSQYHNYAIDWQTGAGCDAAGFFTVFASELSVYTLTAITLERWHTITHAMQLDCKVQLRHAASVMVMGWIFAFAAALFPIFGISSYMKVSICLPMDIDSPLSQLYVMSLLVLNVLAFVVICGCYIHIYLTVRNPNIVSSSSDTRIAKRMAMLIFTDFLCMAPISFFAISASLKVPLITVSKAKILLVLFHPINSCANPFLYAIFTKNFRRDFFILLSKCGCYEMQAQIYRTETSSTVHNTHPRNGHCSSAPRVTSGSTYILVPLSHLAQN
Assay: HTRF assay for measuring cAMP in cells (FSH antagonism)
Assay type: cell-based
Conditions: FSH-antagonistic effect; hFSHR clone 16 cells (CHO cells stably transfected with the human FSH receptor); in the presence of 1e-9 mol/l hFSH; 37°C for 2h
Method: The method is based on a competitive immunoassay between native cAMP, which has been produced by the cells, and cAMP which is labelled with cAMPD2 conjugate. The tracer binding was visualized by a monoclonal antibody, anti-cAMP labelled with cryptate [HTRF = homogeneous time-resolved fluorescence]. The specific signal is inversely proportional to the cAMP concentration of the samples employed. The 665nm/ 620nm fluorescence ratio was evaluated.
Materials used: 96-well plates for the tissue culture, 96-well plates with black edge and black base (e.g. Fluotrac 600 from Greiner), 96-well plates for the substance dilutions of polypropylene and cAMP Femtomolar (4000wells Kit, CIS Bio International # 62AM5PEJ). Reagent used: BSA (bovine serum albumin) Fraction V protease-free, IBMX (3-isobutyl-1-methylxanthine), hFSH (human follicle stimulating hormone), Triton X-100 analytical grade, potassium fluoride analytical grade, G 418 (Geneticin) and Accutase.
Buffer 1 (washing and testing buffer) contained PBS, 1 mM CaCl2, 1 mM MgCl2, 0.2% glucose; 0.1% BSA, 1 mM IBMX.
Buffer 2 (2x lysis buffer) contained 1% Triton X-100 in PBS (without CaCl2 and MgCl2).
Buffer 3 (assay buffer) contained 50 mM potassium phosphate buffer (pH 7.0); 800 mM potassium fluoride; 0.2% BSA (always added fresh).
On day 1, the cells were seeded in 96-well plates (3x10^4 cells per well hFSHR clone 16 cells (CHO cells stably transfected with the human FSH receptor in 150 µl of medium). The next day, test substance dilutions were made up. For this purpose, all the substances were diluted in ice-cold buffer 1 (with or without hFSH), and the substance dilutions were placed on ice until applied to the cells. The cell supernatant was then aspirated off, and the cells were washed 2x with 200 µl of buffer 1. The cells were treated with 60 µl of the appropriate substance concentrations at 37°C for 2h. The cells were then lysed with 60 µl of buffer 2 (put onto the supernatant) (on a plate shaker at RT for 30 min). The test conjugates (cAMP-D2 and anti-cAMP cryptate, CIS Bio) were diluted in buffer 3 in accordance with the manufacturers' information. The actual mixture for measurement was pipetted into a black 96-well plate (in each case 15 µl of the cell lysate diluted with 35 µl of buffer 1; firstly 25 µl of cAMP-D2 conjugate were pipetted and, after 10 min, 25 µl of the anti-cAMP cryptate were added). This is followed by incubation at RT for 90 minutes. The measurement was carried out in a PheraStar (BMG).
Dose-effect curve (hFSH) for the human receptor: 1 e-8, 3e-9, 1 e-9, 3e-10, 1e-10, 3e-11, 1 e-11, 3e-12 mol/I. The test substances were employed in suitable dilutions in the absence (test for agonism) and in the presence of 1e-9 mol/l hFSH.
The values of the well ratio were averaged and then entered directly in SigmaPlot versus the concentrations. The maximum and minimum values were determined for each plate, and half the difference is to be regarded as IC50. […] Table 1. FSH-antagonistic effect of selected compounds in the HTRF assay

Cc1ccccc1C#Cc1ccc(OC(C)C)c(C(=O)N[C@@H](CO)Cc2c[nH]c3ccccc23)c1 [Example 5, N-[(R)-1-Hydroxymethyl-2-(1H-indol-3-yl)-ethyl]-2-isopropoxy-5-o-tolylethynyl-benzamide]
IC50: 0.08 µM

COc1ccccc1C#Cc1ccc(OC(C)C)c(C(=O)NC(CO)Cc2c[nH]c3ccc(F)cc23)c1 (stereo not shown) [Example 22, N-[2-(5-Fluoro-1H-indol-3-yl)-1-hydroxymethyl-ethyl]-2-isopropoxy-5-(2-methoxy-phenylethynyl)-benzamide]
IC50: 0.15 µM

COc1ccccc1C#Cc1ccc(OC(C)C)c(C(=O)NC(CO)Cc2c[nH]c3cc(F)c(F)cc23)c1 (racemic) [Example 23, N-[(RS)-2-(5,6-Difluoro-1H-indol-3-yl)-1-hydroxymethyl-ethyl]-2-isopropoxy-5-(2-methoxy-phenylethynyl)-benzamide]
IC50: 0.03 µM

CCCOc1ccc(C#Cc2ccccc2)cc1C(=O)N[C@@H](CO)Cc1c[nH]c2ccccc12 [Example 1, N-[(R)-1-Hydroxymethyl-2-(1H-indol-3-yl)-ethyl]-5-phenylethynyl-2-propoxybenzamide]
IC50: 0.25 µM

CCn1cc(C[C@H](CO)NC(=O)c2cc(C#Cc3ccccc3OC)ccc2OC(C)C)c2ccccc21 [Example 24, N-[(R)-2-(1-Ethyl-1H-indol-3-yl)-1-hydroxymethyl-ethyl]-2-isopropoxy-5-(2-methoxy-phenylethynyl)-benzamide]
IC50: 0.02 µM

CC(C)Oc1ccc(C#Cc2ccccc2)cc1C(=O)NC(CO)Cc1c[nH]c2ccc(F)cc12 (stereo not shown) [Example 21, N-[2-(5-Fluoro-1H-indol-3-yl)-1-hydroxymethyl-ethyl]-2-isopropoxy-5-phenylethynyl-benzamide]
IC50: 0.3 µM

COc1ccccc1C#Cc1cc(C(=O)N[C@@H](CO)Cc2c[nH]c3ccccc23)c2ccccc2c1 [Example 6, 3-(2-Methoxy-phenylethynyl)-naphthalene-1-carboxylic acid [(R)-1-hydroxymethyl-2-(1H-indol-3-yl)-ethyl]-amide]
IC50: 0.1 µM

COc1ccccc1C#Cc1ccc(OC(C)C)c(C(=O)N[C@H](CO)Cc2c[nH]c3ccccc23)c1 [Example 4, N-[(S)-1-Hydroxymethyl-2-(1H-indol-3-yl)-ethyl]-2-isopropoxy-5-(2-methoxy-phenylethynyl)-benzamide]
IC50: 7.5 µM

COc1ccccc1C#Cc1ccc(OC(C)C)c(C(=O)N[C@H](Cc2c[nH]c3ccccc23)C(C)(C)O)c1 [Example 20, N-[(R)-2-Hydroxy-1-(1H-indol-3-ylmethyl)-2-methyl-propyl]-2-isopropoxy-5-(2-methoxy-phenylethynyl)-benzamide]
IC50: 0.7 µM

CCCOc1ccc(C#Cc2ccccc2OC)cc1C(=O)N[C@@H](CO)Cc1c[nH]c2ccccc12 [Example 2, N-[(R)-1-Hydroxymethyl-2-(1H-indol-3-yl)-ethyl]-5-(2-methoxyphenylethynyl)-2-propoxy-benzamide]
IC50: 0.07 µM
